Patent publication US7189680B2, “5-halo-6-aryl[1,2,4]triazolo[1,5-a]pyrimidin-7-amines” (Bayer Cropscience AG, priority 2001, dated 2007)

Assay: logP determination by HPLC (EEC directive 79/831 Annex V. A8)
Assay type: physicochemical
Settings: HPLC gradient method, acetonitrile/0.1% aqueous phosphoric acid; Table 1
Description: *) The logP values were determined in accordance with EEC directive 79/831 Annex V. A8 by HPLC (gradient method, acetonitrile/0.1% aqueous phosphoric acid)

In order of falling “logP*” value:
1. CC(C)=NN(CC1CCCCC1)c1c(-c2c(F)cc(F)cc2F)c(Cl)nc2ncnn12 [Example 26]  4.5
2. CCC(C)N(N)c1c(-c2cc(C(F)(F)F)ccc2Cl)c(Cl)nc2ncnn12 (centres unmarked) [Example 146]  3.99
3. CC(C)CN(N)c1c(-c2c(Cl)cc(C(F)(F)F)cc2Cl)c(Cl)nc2ncnn12 [Example 136]  3.85
4. CON(CC(C)C)c1c(-c2c(F)cc(F)cc2F)c(Cl)nc2ncnn12 [Example 152]  3.78
5. CC=NN(CC1CC1(Cl)Cl)c1c(-c2c(F)cc(F)cc2F)c(Cl)nc2ncnn12 (centres unmarked) [Example 167]  3.72
6. Fc1ccccc1-c1c(Cl)nc2ncnn2c1NOCc1cc(Cl)cc(Cl)c1 [Example 96]  3.69
7. Fc1c(F)c(F)c(-c2c(Cl)nc3ncnn3c2NOCc2cccc(Cl)c2)c(F)c1F [Example 117]  3.64
8. CC(C)=NN(CC(C)C)c1c(-c2c(F)cc(F)cc2F)c(Cl)nc2ncnn12 [Example 158]  3.63
9. Fc1c(F)c(F)c(-c2c(Cl)nc3ncnn3c2NOCc2ccc(Cl)cc2)c(F)c1F [Example 71]  3.62
10. Fc1ccccc1-c1c(Cl)nc2ncnn2c1NOCc1ccc(Cl)cc1Cl [Example 97]  3.6
11. Fc1c(F)c(F)c(-c2c(Cl)nc3ncnn3c2NOCc2ccccc2Cl)c(F)c1F [Example 116]  3.58
12. CCC(C)N(N)c1c(-c2cc(C(F)(F)F)ccc2Cl)c(Cl)nc2ncnn12 (centres unmarked) [Example 148]  3.53
13. CC(C)CN(N)c1c(-c2cc(C(F)(F)F)ccc2Cl)c(Cl)nc2ncnn12 [Example 140]  3.51
14. CCCCONc1c(-c2c(F)c(F)c(F)c(F)c2F)c(Cl)nc2ncnn12 [Example 119]  3.49
15. CC(C)CN(N)c1c(-c2cccc(C(F)(F)F)c2Cl)c(Cl)nc2ncnn12 [Example 163]  3.45
16. CC(C)CN(N)c1c(-c2ccc(C(F)(F)F)cc2F)c(Cl)nc2ncnn12 [Example 135]  3.43
17. CC(C)CONc1c(-c2c(F)c(F)c(F)c(F)c2F)c(Cl)nc2ncnn12 [Example 69]  3.42
18. Fc1cc(F)c(-c2c(Cl)nc3ncnn3c2NOCc2cccc(C(F)(F)F)c2)c(F)c1 [Example 84]  3.39
19. Fc1cc(F)c(-c2c(Cl)nc3ncnn3c2NOCc2ccc(C(F)(F)F)cc2)c(F)c1 [Example 10]  3.38
20. CCC(C)NNc1c(-c2cccc(C(F)(F)F)c2Cl)c(Cl)nc2ncnn12 (centres unmarked) [Example 145]  3.37
21. Fc1c(F)c(F)c(-c2c(Cl)nc3ncnn3c2NOCc2ccccc2)c(F)c1F [Example 112]  3.37
22. NN(c1c(-c2c(F)cc(F)cc2F)c(Cl)nc2ncnn12)C1CCCCC1 [Example 125]  3.33
23. Fc1cc(F)c(-c2c(Cl)nc3ncnn3c2NOCc2c(Cl)cccc2Cl)c(F)c1 [Example 86]  3.32
24. Fc1cccc(F)c1-c1c(Cl)nc2ncnn2c1NOCc1ccc(C(F)(F)F)cc1 [Example 105]  3.32
25. Fc1ccccc1-c1c(Cl)nc2ncnn2c1NOCc1ccc(C(F)(F)F)cc1 [Example 58]  3.31
26. Fc1cccc(F)c1-c1c(Cl)nc2ncnn2c1NOCc1cccc(C(F)(F)F)c1 [Example 108]  3.3
27. Fc1cc(F)c(-c2c(Cl)nc3ncnn3c2NNC2CCCCC2)c(F)c1 [Example 35]  3.28
28. Cc1ccc(CONc2c(-c3c(F)cc(F)cc3F)c(Cl)nc3ncnn23)cc1 [Example 13]  3.25
29. Fc1cc(F)c(-c2c(Cl)nc3ncnn3c2NOCc2ccccc2Cl)c(F)c1 [Example 81]  3.22
30. CCC(C)NNc1c(-c2cccc3c2OC(F)(F)O3)c(Cl)nc2ncnn12 (centres unmarked) [Example 151]  3.21
31. Fc1cccc(F)c1-c1c(Cl)nc2ncnn2c1NOCc1c(Cl)cccc1Cl [Example 110]  3.2
32. CC(C)CNNc1c(-c2c(Cl)cccc2Cl)c(Cl)nc2ncnn12 [Example 156]  3.18
33. CC(C)CN(N)c1c(-c2c(Cl)cccc2Cl)c(Cl)nc2ncnn12 [Example 155]  3.17
34. Fc1ccccc1-c1c(Cl)nc2ncnn2c1NOCc1cccc(Cl)c1 [Example 60]  3.15
35. NN(CC1CC1(Cl)Cl)c1c(-c2c(F)cccc2Cl)c(Cl)nc2ncnn12 (centres unmarked) [Example 171]  3.11
36. CC(C)N(N)c1c(-c2ccc(C(F)(F)F)cc2F)c(Cl)nc2ncnn12 [Example 134]  3.08
37. NN(c1c(-c2c(F)cc(F)cc2F)c(Cl)nc2ncnn12)C1CCCC1 [Example 130]  3.07
38. CC(=NNc1c(-c2c(F)cc(F)cc2F)c(Cl)nc2ncnn12)C(F)(F)F [Example 165]  3.07
39. Fc1ccccc1-c1c(Cl)nc2ncnn2c1NOCc1ccccc1Cl [Example 59]  3.06
40. CON(C)c1c(-c2c(F)c(F)c(F)c(F)c2F)c(Cl)nc2ncnn12 [Example 77]  3.06
41. CC(C)ONc1c(-c2c(F)c(F)c(F)c(F)c2F)c(Cl)nc2ncnn12 [Example 122]  3.04
42. CC(NNc1c(-c2c(F)cc(F)cc2F)c(Cl)nc2ncnn12)C1CC1 (centres unmarked) [Example 25]  3.02
43. CCOC(=O)NN(CC(C)C)c1c(-c2c(F)cc(F)cc2F)c(Cl)nc2ncnn12 [Example 168]  2.99
44. Fc1ccc(CONc2c(-c3c(F)cc(F)cc3F)c(Cl)nc3ncnn23)cc1 [Example 83]  2.99
45. CC(C)CN(N)c1c(-c2c(F)cc(F)cc2F)c(Cl)nc2ncnn12 [Example 131]  2.91
46. CC(C)(C)NNc1c(-c2c(F)cc(F)cc2F)c(Cl)nc2ncnn12 [Example 21]  2.86
47. Fc1ccc(CONc2c(-c3ccccc3F)c(Cl)nc3ncnn23)cc1 [Example 62]  2.82
48. CC(C)CONc1c(-c2ccccc2F)c(Cl)nc2ncnn12 [Example 56]  2.79
49. CCCCNNc1c(-c2ccccc2F)c(Cl)nc2ncnn12 [Example 90]  2.77
50. CC(C)(C)ONc1c(-c2c(F)cc(F)cc2F)c(Cl)nc2ncnn12 [Example 43]  2.75
51. CCC(C)ONc1c(-c2ccccc2F)c(Cl)nc2ncnn12 (centres unmarked) [Example 63]  2.69
52. CCC(C)ONc1c(-c2c(F)cccc2F)c(Cl)nc2ncnn12 (centres unmarked) [Example 48]  2.67
53. NN(CC1CC1)c1c(-c2c(F)cc(F)cc2F)c(Cl)nc2ncnn12 [Example 159]  2.66
54. CC(C)CN(N)c1c(-c2c(Cl)c(F)cc(C(F)(F)F)c2Cl)c(Cl)nc2ncnn12 [Example 126]  2.58
55. Fc1cc(F)c(-c2c(Cl)nc3ncnn3c2NNCC(F)(F)C(F)F)c(F)c1 [Example 29]  2.58
56. CCCN(N)c1c(-c2c(F)cc(F)cc2F)c(Cl)nc2ncnn12 [Example 20]  2.58
57. NN(CC1CCCO1)c1c(-c2c(F)cc(F)cc2F)c(Cl)nc2ncnn12 (centres unmarked) [Example 127]  2.55
58. C=CCONc1c(-c2c(F)cc(F)cc2F)c(Cl)nc2ncnn12 [Example 42]  2.48
59. Fc1cc(F)c(-c2c(Cl)nc3ncnn3c2NNCC(F)(F)F)c(F)c1 [Example 19]  2.47
60. Fc1ccccc1-c1c(Cl)nc2ncnn2c1NOC1CCCCO1 (centres unmarked) [Example 66]  2.46
61. Fc1cc(F)c(-c2c(Cl)nc3ncnn3c2NNCC2CCCO2)c(F)c1 (centres unmarked) [Example 52]  2.44
62. CON(C)c1c(-c2c(F)cccc2F)c(Cl)nc2ncnn12 [Example 28]  2.43
63. Fc1cc(F)c(-c2c(Cl)nc3ncnn3c2NOCOc2ccc(Cl)nc2)c(F)c1 [Example 15]  2.43
64. CON(C)c1c(-c2ccccc2F)c(Cl)nc2ncnn12 [Example 68]  2.33
65. CNN(C)c1c(-c2c(F)cc(F)cc2F)c(Cl)nc2ncnn12 [Example 18]  2.33
66. C=CCONc1c(-c2c(F)cccc2F)c(Cl)nc2ncnn12 [Example 50]  2.28
67. CCN(N)c1c(-c2c(F)cc(F)cc2F)c(Cl)nc2ncnn12 [Example 17]  2.27
68. CN(C)Nc1c(-c2ccccc2F)c(Cl)nc2ncnn12 [Example 87]  2.26
69. CC(=O)NN(CC(C)C)c1c(-c2c(F)cc(F)cc2F)c(Cl)nc2ncnn12 [Example 157]  2.25
70. C#CCN(N)c1c(-c2c(F)cc(F)cc2F)c(Cl)nc2ncnn12 [Example 142]  2.22
71. CN(O)c1c(-c2c(F)cccc2F)c(Cl)nc2ncnn12 [Example 124]  2.19
72. N#CCCNNc1c(-c2c(F)cc(F)cc2F)c(Cl)nc2ncnn12 [Example 23]  2.03
73. CONc1c(-c2ccccc2F)c(Cl)nc2ncnn12 [Example 67]  1.89
74. N#CCCNNc1c(-c2ccccc2F)c(Cl)nc2ncnn12 [Example 94]  1.82
75. OCCNNc1c(-c2c(F)cc(F)cc2F)c(Cl)nc2ncnn12 [Example 33]  1.68
76. Fc1cc(F)c(-c2c(Cl)nc3ncnn3c2NNCCN2CCOCC2)c(F)c1 [Example 54]  1.14

Same assay, conditions: HPLC gradient method, acetonitrile/0.1% aqueous phosphoric acid; Table 1; read-out: logP*

Work on `NN(CC1CCCCC1)c1c(-c2c(F)cc(F)cc2F)c(Cl)nc2ncnn12` [Example 22] yielded a chromatographic logP of 3.67.
